# Source: US20130316965A1, “IDRABI[…] THE TREATMENT OF PULMONARY EMBOLISM AND FOR THE SECONDARY PREVENTION OF VENOUS THRO[…]” (priority 2011, published 2013)
# Legend:
# Type in all cases: in vivo, human
# [1] = test system: patients with symptomatic pulmonary embolism with or without symptomatic deep venous thrombosis; assay: CASSIOPEA (EFC6034) phase III clinical trial: symptomatic recurrent PE/DVT (efficacy); conditions: for Hazard ratio, symptomatic recurrent PE/DVT: idrabiotaparinux vs warfarin
# Method: Patients with confirmed symptomatic PE with or without acute symptomatic DVT are eligible for this trial. Treatment with a therapeutic dose of any LMWH or UFH or fondaparinux is allowed only within the 36 hours immediately preceding randomization. Randomization is performed as soon as the diagnosis of PE (and DVT if concomitant suspected symptomatic DVT) is confirmed.
# (§1) A blinded central and independent adjudication committee (CIAC) assesses PE (and DVT when applicable), all episodes of locally confirmed or doubtful PE/DVT recurrences, clinically relevant bleedings and deaths. Adjudication results are the basis for the final analyses.
# Patients in the 3-month stratum have an additional 13-week observational period after cessation of study treatment. Patients in the 6-month stratum have a 13-week up to 26-week observational period.
# Injections of SSR126517E (or its placebo) is started 12 h after the last post-randomization enoxaparin administration. SSR126517E (or its placebo) is administered s.c. once-weekly for a period of 3 or 6 months. All patients receive a first 0.5 ml injection (3.0 mg in the SSR126517E group). The following injections are also 0.5 ml, except in patients with severe renal insufficiency (defined as creatinine clearance <30 mL/min), who decrease to a dosage of 0.3 ml (1.8 mg in the SSR126517E group).
# The primary efficacy outcome is symptomatic recurrent PE/DVT (fatal or not), as validated by the CIAC, within 99 days for patients from both strata (3- and 6-month treatments).
# A secondary efficacy outcome for patients in the 6-month stratum is symptomatic recurrent PE/DVT, as validated by the CIAC, within 190 days.
# There are 2 additional efficacy outcomes: • the time to first symptomatic recurrent PE/DVT (fatal or non fatal) within the patient's treatment period, i.e. a combined analysis of the 3-and 6-month strata patients; • the separate components of the efficacy outcomes within 99 days (all patients) and within 190 days (6-month stratum patients only).
# The definitions to confirm a suspected symptomatic episode of recurrent PE/DVT are as follows:
# Efficacy analyses are performed on the—All-randomized—population (patients with a patient number and an allocated treatment number recorded in the IVRS database).
# The secondary efficacy outcome (VTE recurrence within 190 days) for patients in the 6-month stratum is analyzed using the same method and applying the same non-inferiority margin.
# Time to first symptomatic recurrent PE/DVT within the patient's study treatment period for all patients is analyzed using Cox's proportional hazards model, stratified on intended treatment duration.
# [2] = test system: patients with symptomatic pulmonary embolism with or without symptomatic deep venous thrombosis; assay: CASSIOPEA (EFC6034) phase III clinical trial: deaths; conditions: overall
# Excerpt: as §1
# [3] = test system: patients with symptomatic pulmonary embolism with or without symptomatic deep venous thrombosis; assay: CASSIOPEA (EFC6034) phase III clinical trial: clinically relevant bleeding (safety); conditions: for Hazard ratio, clinically relevant bleeding: idrabiotaparinux vs warfarin
# Excerpt: According to the instant invention, the term “bleedings” designates any clinically relevant bleeding (i.e. major or clinically relevant non-major hemorrhage).
# According to the instant invention, the term “major bleedings” designates any of the following clinical situations: • bleeding associated with a fall in hemoglobin of 2 g per deciliter or more, • bleeding that led to a transfusion of 2 or more units of packed red cells or whole blood (a red cell unit being defined as the quantity of red cells obtained from or corresponding to approximately 500 ml of whole blood), • bleeding that involved a critical organ (intracranial, intraocular, intraspinal, retroperitoneal or pericardial), • bleeding that contributed to death.
# as §1
# The principal safety outcome is any clinically relevant bleeding as classified by the CIAC (i.e. major bleeding and other clinically relevant non-major bleeding).
# Bleeding analyses are also performed on the—All-randomized—population. Other safety analyses are performed on the—All-treated—population.
# Rates of clinically relevant bleedings are calculated in each treatment group at 3 months (99 days) and 6 months (190 days) and compared between treatment groups using a Mantel-Haenszel chi-square stratified on intended treatment duration. Cumulative incidences of clinically relevant bleedings during the combined 3-month and 6-month period and up to the end of study are described by treatment group using the Kaplan Meier method.
# [4] = test system: patients with symptomatic pulmonary embolism with or without symptomatic deep venous thrombosis; assay: CASSIOPEA (EFC6034) phase III clinical trial: benefit-risk assessment (PE, DVT or major bleeding composite); conditions: Randomized population
# Excerpt: Tables 13 and 14 show the incidence of pulmonary embolism, deep venous thrombosis or major bleedings (composite endpoint) in the randomized population in the treatment phase (3-month or 6-month treatment with idrabiotaparinux) and up to the end of the study (assessment at 12 months).
# [5] = Randomized population in the 6-month stratum
# [6] = Randomized population, All patients
# [7] = Randomized population, Patients with VKA beyond D99/D190
# [8] = Randomized population, Patients with no VKA beyond D99/D190
# [9] = Randomized population, or death for which PE could not be ruled out
# [10] = combined 3-month and 6-month period
# [11] = combined 3-month and 6-month periods, time-to-event analysis (Kaplan-Meier)
# [12] = treatment period plus 3 to 6-month post-treatment follow-up (up to end of study)
# [13] = Cox proportional hazards model, stratified
compound,measurement,setting,value
"CO[C@H]1O[C@H](COS(=O)(=O)O)[C@@H](O[C@@H]2O[C@@H](C(=O)O)[C@@H](O[C@H]3O[C@H](COS(=O)(=O)O)[C@@H](O[C@@H]4O[C@H](C(=O)O)[C@@H](O[C@H]5O[C@H](COS(=O)(=O)O)[C@@H](OC)[C@H](OC)[C@H]5NC(=O)CCCCCNC(=O)CCCC[C@@H]5SC[C@@H]6NC(=O)N[C@@H]65)[C@H](OC)[C@H]4OC)[C@H](OS(=O)(=O)O)[C@H]3OS(=O)(=O)O)[C@H](OC)[C@H]2OC)[C@H](OS(=O)(=O)O)[C@H]1OS(=O)(=O)O [Idrabiotaparinux, idrabiotaparinux]",DVT only within 190 days from randomization: Patients with event,[1]; 6-month stratum,7 (0.6%) n (%)
same,Non-fatal PE within 190 days from randomization: Patients with event,[1]; 6-month stratum,9 (0.7%) n (%)
same,Symptomatic recurrent PE/DVT (fatal or not) from randomization to end of study: Patients with event,"[1]; 6-month stratum, All patients",37 (2.9%) n (%)
same,Symptomatic recurrent PE/DVT (fatal or not) from randomization to end of study: Patients with event,"[1]; 6-month stratum, Patients with VKA beyond D190",10 (3.2%) n (%)
same,Symptomatic recurrent PE/DVT (fatal or not) from randomization to end of study: Patients with event,"[1]; 6-month stratum, Patients with no VKA beyond D190",27 (2.8%) n (%)
same,Reducing the risk of symptomatic recurrent PE/DVT up to Day 190 (non-inferiority),"[1]; 6-month stratum, non-inferiority margin 2.0",at least as effective as warfarin
same,Fatal PE within 190 days from randomization: Patients with event,"[1]; 6-month stratum, or death for which PE could not be ruled out",13 (1.0%) n (%)
same,Patients who experienced DVT up to Day 190,"[1]; 6-month stratum, up to Day 190",0.6%
same,DVT only up to the end of study: Patients with event,[1]; Randomized population,10 (0.6%) n (%)
same,DVT only within 99 days from randomization: Patients with event,[1]; Randomized population,5 (0.3%) n (%)
same,Non-fatal PE up to the end of study: Patients with event,[1]; Randomized population,16 (1.0%) n (%)
same,Non-fatal PE within 99 days from randomization: Patients with event,[1]; Randomized population,13 (0.8%) n (%)
same,Symptomatic recurrent PE/DVT (fatal or not) within 190 days from randomization: Patients with event,[1]; [5],29 (2.3%) n (%)
same,Symptomatic recurrent PE/DVT within 190 days: Idrabiotaparinux vs. Warfarin odds ratio,[1]; [5],0.80
same,Symptomatic recurrent PE/DVT (fatal or not) from D100/D191 to end of study: Patients with event,[1]; [6],9 (0.6%) n (%)
same,Symptomatic recurrent PE/DVT (fatal or not) from randomization to end of study: Patients with event,[1]; [6],48 (3.0%) n (%)
same,Symptomatic recurrent PE/DVT within 99 days: Idrabiotaparinux vs. Warfarin odds ratio,"[1]; Randomized population, Mantel-Haenszel, stratified on intended treatment duration",0.79
same,Symptomatic recurrent PE/DVT (fatal or not) from D100/D191 to end of study: Patients with event,[1]; [7],4 (1.0%) n (%)
same,Symptomatic recurrent PE/DVT (fatal or not) from randomization to end of study: Patients with event,[1]; [7],12 (3.1%) n (%)
same,Symptomatic recurrent PE/DVT (fatal or not) from D100/D191 to end of study: Patients with event,[1]; [8],5 (0.5%) n (%)
same,Symptomatic recurrent PE/DVT (fatal or not) from randomization to end of study: Patients with event,[1]; [8],36 (3.0%) n (%)
same,Fatal PE up to the end of study: Patients with event,[1]; [9],22 (1.4%) n (%)
same,Fatal PE within 99 days from randomization: Patients with event,[1]; [9],16 (1.0%) n (%)
same,Symptomatic recurrent PE/DVT (fatal or not) within 99 days from randomization: Patients with event,"[1]; Randomized population, within 99 days",34 (2.1%) n (%)
same,Reducing the risk of symptomatic recurrent PE/DVT up to Day 99 (non-inferiority),"[1]; all randomized population, non-inferiority margin 2.0",at least as effective as warfarin
same,"Hazard ratio, symptomatic recurrent PE/DVT",[1]; [10],0.77
same,Cumulative incidence of symptomatic recurrent PE/DVT at Day 99,[1]; [11],2.2%
same,Cumulative incidence of symptomatic recurrent PE/DVT at Day 190,[1]; [11],2.6%
same,Cumulative incidence rate of symptomatic recurrent PE/DVT at Day 360,[1]; [12],3.1%
same,Patients who experienced DVT up to Day 99,[1]; up to Day 99,0.3%
same,Patients who experienced DVT up to the end of study,[1]; up to the end of study,0.6%
same,Patients who experienced non-fatal PE up to the end of study,[1]; up to the end of study,1.0%
same,"Hazard ratio, symptomatic recurrent PE/DVT",[1]; up to the end of the study,0.49
same,Risk reduction in the occurrence of symptomatic recurrent PE/DVT,"[1]; up to the end of the study, vs warfarin",51%
same,Patients who died on study,[2],5.9%
same,Any clinically relevant bleeding within 190 days: Idrabiotaparinux vs. Warfarin odds ratio,[3]; 6-month stratum,0.81
same,Clinically relevant bleedings up to Day 190,[3]; 6-month stratum,6.6%
same,Fatal bleeding within 190 days from randomization: Patients with event,[3]; 6-month stratum,7 (0.6%) n (%)
same,Fatal bleeding within 190 days: Idrabiotaparinux to Warfarin odds ratio (95% CI),[3]; 6-month stratum,1.40 (0.44 to 4.42)
same,Intracranial haemorrhage (fatal or not) within 190 days from randomization: Patients with event,[3]; 6-month stratum,8 (0.6%) n (%)
same,Intracranial haemorrhage (fatal or not) within 190 days: Idrabiotaparinux to Warfarin odds ratio (95% CI),[3]; 6-month stratum,1.33 (0.46 to 3.85)
same,Major bleeding within 190 days from randomization: Patients with event,[3]; 6-month stratum,24 (1.9%) n (%)
same,Major bleeding within 190 days: Idrabiotaparinux to Warfarin odds ratio (95% CI),[3]; 6-month stratum,0.66 (0.39 to 1.11)
same,Patients who experienced a major bleeding up to Day 190,[3]; 6-month stratum,1.9%
same,Any clinically relevant bleeding within 99 days from randomization: Patients with event,[3]; Randomized population,72 (4.5%) n (%)
same,Fatal bleeding within 99 days from randomization: Patients with event,[3]; Randomized population,3 (0.2%) n (%)
same,Fatal bleeding within 99 days: Idrabiotaparinux to Warfarin odds ratio (95% CI),[3]; Randomized population,0.50 (0.13 to 2.01)
same,Intracranial haemorrhage (fatal or not) within 99 days from randomization: Patients with event,[3]; Randomized population,4 (0.3%) n (%)
same,Intracranial haemorrhage (fatal or not) within 99 days: Idrabiotaparinux to Warfarin odds ratio (95% CI),[3]; Randomized population,0.57 (0.17 to 1.96)
same,Major bleeding within 99 days from randomization: Patients with event,[3]; Randomized population,20 (1.3%) n (%)
same,Major bleeding within 99 days: Idrabiotaparinux to Warfarin odds ratio (95% CI),[3]; Randomized population,0.51 (0.30 to 0.88)
same,Any clinically relevant bleeding within 190 days from randomization: Patients with event,[3]; [5],84 (6.6%) n (%)
same,Any clinically relevant bleeding within 99 days: Idrabiotaparinux vs. Warfarin odds ratio,"[3]; Randomized population, Mantel-Haenszel, stratified",0.67
same,Major bleeding within 99 days: Idrabiotaparinux to Warfarin odds ratio (95% CI),"[3]; Randomized population, listed as idrabiotaparinux",0.51
same,"Hazard ratio, clinically relevant bleeding",[3]; [10],0.70
same,Cumulative incidence of clinically relevant bleeding at Day 99,[3]; [11],4.6%
same,Cumulative incidence of clinically relevant bleeding at Day 190,[3]; [11],6.6%
same,Cumulative incidence rate of clinically relevant bleeding at Day 360,[3]; [12],8.3%
same,Incidence of clinically relevant bleeding up to Day 99,[3]; up to Day 99,4.5%
same,Patients who experienced a major bleeding up to Day 99,[3]; up to Day 99,1.3%
same,"Hazard ratio, clinically relevant bleeding",[3]; up to the end of study,0.79
same,"PE, DVT or major bleeding in the combined 3-month and 6-month period: Idrabiotaparinux vs. Warfarin Odds ratio",[4]; [13],0.66
same,"PE, DVT or major bleeding up to the end of study: Idrabiotaparinux vs. Warfarin Odds ratio",[4]; [13],0.54
same,"PE, DVT or major bleeding in the combined 3-month and 6-month period: Patients with event",[4]; composite endpoint,65 (4.1%) n (%)
same,"PE, DVT or major bleeding up to the end of study: Patients with event",[4]; composite endpoint,82 (5.1%) n (%)
